The conditions of data set [1]: cited from earlier work.
Data set [2] concerns fibroblasts (NIH 3T3, mouse). In words: Fibroblast adhesion and proliferation on hydrogel by optical microscopy. In kind it is cell-based. To be noted: fresh media provided; assay stopped after 1 month. The protocol:
These cells were used as a model system because of their importance in connective tissue development and their easily distinguished morphology when adhered to the hydrogel scaffold. Qualitative studies were performed in which cells were added to either polystyrene control wells or wells containing a uniform slab (3 mm thick) of MAX1-hydrogel. Cell adhesion was qualitatively monitored via direct observation of cell spreading after four hours from the time of initial cell seeding by optical microscopy (a quantitative cell attachment assay is described below, see also Akiyama, S. K. Functional analysis of cell adhesion: Quantitation of cell-matrix attachment, 2002; Vol. 69, pp 281-296). Non-adhered fibroblasts have rounded morphologies and adhered fibroblasts have spread morphologies Proliferation was measured both qualitatively by optical microscopy and quantitatively by a ^3H thymidine-based cell seeding assay as described below. Hydrogels were prepared in 48 well tissue culture plates by either one of the following protocols. Protocol 1: MAX1 was dissolved in water (resulting in an acidic solution, pH˜5) and an equal volume of buffer (pH 9, 250 mM borate, 20 mM NaCl) was added at room temperature to induce folding/self-assembly resulting in a 2 wt % hydrogel. The resulting gel was bathed in DMEM containing 10% calf serum and 10 mg/mL gentamicin. […]

Data set [3] can be described thus: Temperature dependent CD of peptide folding and self-assembly (Tgel), with rheology of thermal reversibility. In kind it is physicochemical. The following applies: for Tgel, temperature at which folding and consequent self-assembly is triggered: 150 μM peptide, 125 mM Borate, 10 mM NaCl, pH 9, CD [θ]218; for reversibility of thermally induced hydrogelation: CD 150 μM and rheology 2 wt %, heating/cooling cycles 5-80° C. An excerpt: At low temperature MAX1 is unfolded (and unassembled). At high temperature MAX1 folds into beta-sheet (and consequently self-assembles into a hydrogel). […] The relative hydrophobicity is MAX1>MAX2>MAX3 due to the isostructural but less hydrophobic substitutions of threonine for valine at the underlined positions. The most hydrophobic folds at the lowest temperature while the least hydrophobic folds at the highest temperature. This is a direct manifestations of the molecular parameter manipulations described in FIG. 2. Also shown are the calculated free energy of transfer of each corresponding unfolded peptide having an overall +8 charge state from octanol into water at 25° C. MAX1, the most hydrophobic has the highest free energy of transfer equal to 7.60 kcal/mol. MAX2 has a calculated transfer free energy of 6.88 kcal/mol, while the least hydrophobic MAX3 has the lowest energy of transfer of 6.45 kcal/mol.
This allows the characteristics of the hydrogels of the invention to be varied by adjusting these parameters. […] It is well known that water is better able to solvate hydrophobic groups at low temperatures. This phenomenon has been used to describe the cold denaturation of proteins where some proteins unfold at low temperatures, exposing their hydrophobic interiors to aqueous solvent. A 150 μM aqueous solution of MAX1 unfolds when cooled below room temperature. The CD spectrum at 5° C. is consistent with random coil conformation, FIG. 9A. However, warming the solution to 40° C. results in a spectra consistent with β-sheet structure. […] In fact, previous studies involving the pH induced folding and self-assembly of MAX1 were performed at 20° C. At this temperature, folding and self-assembly are slow enough to be conveniently monitored. At higher temperatures, folding and self-assembly leading to hydrogelation is fast (instantaneous to seconds depending on concentration). If the formation of hydrophobic interactions affects the folding and self-assembly process, then altering the hydrophobic content of MAX1 should affect the temperature at which folding is triggered. […] MAX2 is identical to MAX1 except that one valine residue has been replaced with the isostructural, but less hydrophobic residue, threonine. In MAX3, two valines are replaced with threonine residues. The resulting peptides vary in their hydrophobicity as evident by comparing calculated free energies of transfer from octanol into water, FIG. 9. […] Thus, the formation of hydrophobic contacts influences folding and self-assembly. […] Thus, the characteristics of the hydrogels of the invention can be varied by adjusting the amino acid residues of the peptides used to form the hydrogels to increase or decrease the hydrophobicity of the amino acid residues used.
There are reports of large polymers that are thermally responsive. The present invention provides the first system that employs temperature triggered folding to induce self-assembly. […] Heating the solution to 80° C. results in a spectra consistent with β-sheet structure. […] The temperatures used in both CD and rheology bracket the temperature (Tgel=60° C., FIG. 9) at which folding and consequent self-assembly is triggered. […] For example, free flowing peptide solutions could be prepared at room temperature and administered in vivo where the temperature of the body could induce gelation. Some Poly-N-isopropylacrylamide polymers have been engineered have been engineered to undergo such transitions ultimately affording extracellular-like scaffolds for tissue regeneration. The above studies support the idea that the formation of hydrophobic interactions are important. MAX1-3 all contain valines and threonines at hydrogen bonded positions. At these positions, their side chains prefer to adopt a trans rotamer. […]

The nature of data set [4]: Folding (CD) and hydrogelation of sequence variants under folding conditions. In kind it is physicochemical. To be noted: for conformation by CD under folding conditions: 150 μM, pH 9.0, 125 mM Borate, 10 mM NaCl. An excerpt:
In some embodiments of the invention, various functionalities (e.g., cell adhesion epitopes, receptor agonists, receptor antagonists, ligands, small molecules, etc) may be incorporated into the hairpin hydrogel scaffold. One way to accomplish this would be to functionalize one or more amino acid side chains of the peptide. […] In some embodiments, the moieties to be incorporated at a particular side chain may be much larger (e.g. RGD-based motifs) and may contain charged residues. MAX5 (VKVKVKVKV^DPPTKVKEKVKV-NH2) was prepared to investigate the possibility of incorporating a charged residue on the hydrophobic face of MAX1. The sequence contains a glutamic acid residue at position 16 which is negatively charged at basic pH where MAX1 normally folds and assembles. […] However, alterations to the hydrophilic face of MAX1 are well tolerated. Sequences in which one or two lysine residues are replaced with other residues such as cysteine, serine, and glutamic acid are capable of folding and self-assembly into rigid hydrogels (data not shown).
The peptides described above contain identical turn sequences, namely (-V^DPPT-). This sequence has a strong propensity to form a type II′ turn and therefore helps to drive intramolecular folding. Since intramolecular folding must occur prior to self-assembly, alterations to this turn sequence that inhibit turn structure formation can be used to modulate intramolecular folding and self-assembly leading to hydrogelation. MAX9 was prepared to probe the importance of the turn region (VKVKVKVKV^LPPTKVKVKVKV-NH2). MAX9 is identical to MAX1 with the exception that the ^DPro at position ten has been replaced with ^LPro. Unlike the dipeptide ^DPro^LPro contained within MAX1 that favors type II′ turn formation, the ^LPro^LPro motif of MAX9 favors an open conformation. The two strands emanating from an open ^LPro^LPro conformation would be projected in opposite directions. Thus, intramolecular folding resulting in β-hairpin formation would be highly unfavored. […]

The values that follow come from patent publication US7858585B2, “Hydrogels and uses thereof” (University of Delaware, priority 2005, dated 2010).

Square brackets hold non-standard residues; d marks the D form. Ends that are not written are not given here. Peptide text beside a SMILES is read from it. Where only a bound is given, the exact number is not on record here.

As for `NC(=O)CN1CCN(CC(N)=O)CCN(CC(N)=O)CCN(CC(N)=O)CC1` [DOTAM], in data set [1] (read-out: Kd for calcium), the Kd is 29 nM.

Take `CC(C)[C@H](N)C(=O)N[C@@H](CCCCN)C(=O)N[C@H](C(=O)N[C@@H](CCCCN)C(=O)N[C@H](C(=O)N[C@@H](CCCCN)C(=O)N[C@H](C(=O)N[C@@H](CCCCN)C(=O)N[C@H](C(=O)N1CCC[C@@H]1C(=O)N1CCC[C@H]1C(=O)N[C@H](C(=O)N[C@@H](CCCCN)C(=O)N[C@H](C(=O)N[C@@H](CCCCN)C(=O)N[C@H](C(=O)N[C@@H](CCCCN)C(=O)N[C@H](C(=O)N[C@@H](CCCCN)C(=O)N[C@H](C(N)=O)C(C)C)C(C)C)C(C)C)C(C)C)[C@@H](C)O)C(C)C)C(C)C)C(C)C)C(C)C` [MAX1, VKVKVKVK V^DPPT KVKVKVKV-NH2] (H-VKVKVKVKV[dP]PTKVKVKVKV-NH2): in data set [2], the “time cells remain viable on gel” value is no less than 1 month.

As for -DRKADGYIDFEE-, in data set [1] (linear peptide, calcium binding loop of Troponin C), the “Kd for Ca(II)” value was “low mM”.

Consider KVKVKVKV K^DPPS VKVKVKVK-NH2 [MAX4], for which, in data set [3], the “Tgel, temperature at which folding and consequent self-assembly is triggered” value was found to be 20 °C.

As for VKVKVKTK V^DPPT KVKTKVKV-NH2 [MAX3], in data set [3], the “Tgel, temperature at which folding and consequent self-assembly is triggered” value is 60 °C; the “reversibility of thermally induced hydrogelation” value is on record as “thermally reversible”.

Take “VKVKVKVK VPPT KVKVKVKV-NH2 (VKVKVKVKVPPTKVKVKVKV-NH2) [MAX9]”: the “conformation by CD under folding conditions” value in data set [4] is listed as “only random coil”. In addition, in data set [4] (folding conditions, 2 wt % solutions), the hydrogelation entry is “failed to undergo hydrogelation”.

VKVKVKVK V^DPPT KVKEKVKV-NH2 [MAX5]: in data set [4], the “conformation by CD under folding conditions” value is “random coil”.

As to VKVKVKVK V^DPPT KVKTKVKV-NH2 [MAX2], the “reversibility of thermally induced hydrogelation” value in data set [3] is “not reversible”. Besides, in data set [3] (pH 9 (10 mM NaCl)), the “temperature above which peptide folds/self-assembles” value is “greater than 45 °C” and the “temperature below which peptide is unfolded” value is “below 40 °C”.

Usually Kd stands for the concentration at which binding is half-saturated.
